Results from ChEMBL document CHEMBL1157539, “Thousands of chemical starting points for antimalarial lead identification” (Nature, 2010).

Tested on: Plasmodium falciparum
Assay: GSK_TCMDC: Inhibition of Plasmodium falciparum 3D7 in whole erythrocytes, using parasite LDH activity as an index of growth.
Assay type: functional, organism-based
Details: Plasmodium falciparum, 3D7

CCN1CCC(N(Cc2ccc(-c3ccc(C(F)(F)F)cc3)cc2)C(=O)Cn2c(SCc3ccc(F)cc3)nc(=O)c3c2CCC3)CC1
XC50: 991 nM

CCN1CCC(N(Cc2ccc(-c3ccc(Cl)cc3)cc2)C(=O)Cn2c(CCc3cccc(F)c3F)cc(=O)c3ccccc32)CC1
XC50: 703 nM

CC1CC(C)CN(CCCNc2ccc(C(=O)Nc3ccc(C(F)(F)F)cc3)cc2[N+](=O)[O-])C1 (configuration not stated)
XC50: 203 nM

Clc1ccc(CNC2CCN(CC3CCCCC3)CC2)cc1
XC50: 1110 nM

COc1ccc(CCNC(=O)c2cc3c(=O)n4cccc(C)c4nc3n(C)c2=N)cc1
XC50: 762 nM

O=C(/C=C/c1ccc(Cl)c(Cl)c1)NCCCCCN1CCCN(C(=O)Nc2ccc(F)c(F)c2)CC1
XC50: 803 nM

FC(F)(F)c1ccc2[nH]c(-c3ccc(-c4cccc(CNCCc5ccncc5)c4)s3)nc2c1
XC50: 117 nM

C#CCN1CCC2=C(C1)c1c(O)cc(C(C)C(C)CCc3ccc(F)cc3)cc1OC2(C)C (configuration not stated)
XC50: 175 nM

CCCN1CCN(CCCNC(=O)c2cc3c(-c4ccc(Cl)cc4)nn(C)c3s2)CC1
XC50: 1100 nM

CC(C)C[C@H](NC(=O)c1ccc(OCCN2CCOCC2)cc1)C(=O)NC(/C=N/N1CCCC1=O)C(C)C (some centres not stated)
XC50: 248 nM

COc1cc(Cc2cnc(N)nc2N)cc(OCCCc2cc(OCc3ccccc3)no2)c1OC
XC50: 1870 nM

CN1CCN(Cc2ccc(OCc3cccc(COc4ccc(CN5CCN(C)CC5)cc4I)c3)c(I)c2)CC1
XC50: 1010 nM

CCC(CC(C)C(=O)O)=C(c1ccccc1)c1ccccc1 (configuration not stated)
XC50: 224 nM

Cc1cc(=NN=Cc2ccccc2F)c2cc(F)ccc2[nH]1
XC50: 299 nM

CCCC(C)Nc1nc(C)cc(N[C@@H](Cc2ccccc2)C(=O)NCCc2ccccc2)n1 (some centres not stated)
XC50: 954 nM

CCCn1c(=N)c(C(=O)NCCc2ccccc2)cc2c(=O)n3cccc(C)c3nc21
XC50: 1120 nM

Nc1nc(N)c2c(ccc3c2cnn3Cc2cccnc2)n1
XC50: 48.1 nM

Cc1c(C)n(C2CCCCC2)c2ncnc(OC3CCN(CC(=O)NC4CC4)CC3)c12
XC50: 1240 nM

Cc1cc(CNCCCCCCNCc2ccc(Cl)cc2)ccc1O
XC50: 823 nM

Cc1ccc2c(c1C)NC(=O)C21NN=C(c2ccccc2)S1 (configuration not stated)
XC50: 749 nM

COc1cc2nc(N3CCC(CNC(=O)c4ccc(-c5ccc(C#N)cc5C)cc4)CC3)nc(N)c2cc1OC
XC50: 180 nM

FC(F)(F)c1ccc2[nH]c(-c3cccc(-c4cccc(CNCc5cnn(-c6ccccc6)n5)c4)c3)nc2c1
XC50: 552 nM

CCCCOc1ccc(-c2nc3ccccc3[nH]2)cc1
XC50: 865 nM

c1cncc(CCNCc2cccc(-c3ccc(-c4nc5ccccc5[nH]4)s3)c2)c1
XC50: 202 nM

O=C(Nc1cn(-c2ccc(OCc3cccc(F)c3)c(Cl)c2)c2ncncc12)c1ccncc1
XC50: 171 nM

Clc1ccc(-c2ccc(C=NNc3nc(=Nc4ccccc4)[nH]c(=Nc4ccccc4)[nH]3)o2)cc1Cl
XC50: 736 nM

Cn1ccnc1Sc1ncccc1[N+](=O)[O-]
XC50: 968 nM

CC(=O)Nc1ccc(C(=O)Nc2ccc(-c3cccc(-c4nc5cc(C(F)(F)F)ccc5[nH]4)c3)cc2)cn1
XC50: 111 nM

Fc1ccc2[nH]c(-c3ccc(-c4ccc(CN5CCC(CCN6CCCCC6)CC5)cc4)s3)nc2c1
XC50: 142 nM

Cc1cc(N(C)CCCN(C)C)nc(Nc2ccc(Br)cc2)n1
XC50: 643 nM

CC(C)CNCc1ccc(OCc2cccc(COc3ccc(CNCC(C)C)cc3I)c2)c(I)c1
XC50: 772 nM

Cc1nc2nc(N)nc(N)c2c(C)c1Cc1cccc(C(N)=O)c1
XC50: 1080 nM

O=C(NC1CCN(Cc2ccccc2)CC1)c1cc(-c2ccncc2)c(-c2ccc(Cl)c(O)c2)o1
XC50: 407 nM

CC(C)N(Cc1ccc(-c2ccc(C(F)(F)F)cc2)cc1)C(=O)Cn1c(SCc2cccc(F)c2F)cc(=O)c2cc(CN3CCCCC3)ccc21
XC50: 872 nM

Cc1[nH]c(C)c(-c2ccc(Br)cc2)c(=O)c1Cl
XC50: 844 nM

CCC(C)NS(=O)(=O)c1ccc2nc(Nc3ccc(C)cc3)n(C3CCCCC3)c2c1 (configuration not stated)
XC50: 462 nM

Cc1nc(C)c(CC(=O)Nc2ccc(-c3cccc(-c4nc5cccc(C)c5[nH]4)c3)cc2)s1
XC50: 596 nM

N#Cc1ccc(N[C@@H](CC2CCCCC2)C(=O)N[C@@H]2CCCc3ccccc32)c2ccccc12
XC50: 728 nM

CC(C)c1ccc(C2CCN(CCCCNC(=O)c3ccc(NC(=O)c4ccc(C(F)(F)F)cc4)cc3)CC2)c(O)c1
XC50: 579 nM

COc1ccc(/C=C/C(=O)Nc2ccc(-c3ccncc3)cc2)cc1CCCN(C)C
XC50: 753 nM

O=C(Nc1ccc(Cl)c(C(F)(F)F)c1)c1ccc(C(=O)Nc2ccc(Cl)c(C(F)(F)F)c2)cc1
XC50: 1000 nM

CCCCCCCCc1c(C)nc(C)c(I)c1O
XC50: 737 nM

CCCCOc1cc(C)nc2ccc(NC(=O)COCC(=O)Nc3ccc4nc(C)cc(OCCCC)c4c3)cc12
XC50: 1000 nM

CC(C)(C)c1ccc(CN2CCCCC(NC(=O)c3cc(-c4ccccc4Cl)cs3)C2)cc1 (configuration not stated)
XC50: 1120 nM

O=C(Nc1cccc(C(F)(F)F)c1)c1ccc(S(=O)(=O)NCC2CCCN(CC3CCCCC3)C2)cc1 (configuration not stated)
XC50: 899 nM

Nc1c2c(nc3ccc(NC(=O)c4ccc([N+](=O)[O-])cc4)cc13)CCCC2
XC50: 237 nM

CCCCN(CCCC)CCCCNc1c2ccccc2nc2ccccc12
XC50: 148 nM

CC(=O)N(Cc1nc(-c2cc(C(F)(F)F)cc(C(F)(F)F)c2)cs1)c1c(C)cccc1C
XC50: 107 nM

O=C(Nc1ccc(NC2=NCCN2)cc1)c1ccc(C(=O)Nc2ccc(NC3=NCCN3)cc2)cc1
XC50: 649 nM

COc1ccc(Cl)cc1N1CCN(CCCNC(=O)c2ccc(-c3nc4cnccc4[nH]3)c(Br)c2)CC1
XC50: 1150 nM

O=C(/C=C/c1ccc(C(F)(F)F)cc1)NCCCCCN1CCN(C(=O)Nc2ccc(Cl)c(Cl)c2)CC1
XC50: 867 nM

Cc1ccc2c(c1)c(-c1ccccc1)c(-c1ccccc1)n2CC(O)CN1CCN(CC=Cc2ccccc2)CC1 (configuration not stated)
XC50: 782 nM

CC[C@H]1CN2CCc3cc(OC)c(OC)cc3[C@@H]2C[C@@H]1C[C@H]1NCCc2c1cc(OC)c(OC)c2Br
XC50: 650 nM

CC(=O)Nc1ccc(COc2ccc(Nc3ccnc4cc(-c5ccccn5)ccc34)cc2)cc1
XC50: 196 nM

CC(C)(CN)c1cc(-c2ccc(Cl)c(O)c2)c(-c2ccncc2)o1
XC50: 1140 nM

NCCCCc1c(-c2ccc(Cl)c(Cl)c2)[nH]c2ccc(Cl)cc12
XC50: 912 nM

CCNC(=O)c1ccc(-n2nc(C)cc2-c2ccccc2)cc1
XC50: 1120 nM

O=C(Nc1ccc(Cl)cc1)N[C@H]1CCN(Cc2ccc(OCCCN3CCCCC3)cc2)C1
XC50: 671 nM

CC(C)NCc1cccc(-c2cccc(NC(=O)c3cccc(Cl)c3)c2)c1
XC50: 592 nM

COCCNCc1ccc(-c2ccc3c(Nc4ccc(Cl)cc4F)ccnc3c2)o1
XC50: 206 nM

CCOc1cc(C(=O)N[C@@H](Cc2ccccc2)[C@H](O)CNCc2cc(OC)cc(OC)c2)cc(N2CCCC2=O)c1
XC50: 852 nM

CC(=NNC(S)=NCCc1ccccn1)c1ccccn1
XC50: 319 nM

CCc1cccc(OCC2CCCN(c3ccc(C(=O)NC4CC4)cn3)C2)c1 (configuration not stated)
XC50: 1440 nM

COC(=O)c1ccc(OCC(O)CO)cc1O (configuration not stated)
XC50: 738 nM

COc1ccc(-c2ccc(NC(=O)c3cccc(Cl)c3)cc2)cc1CN(C)CCN(C)C
XC50: 782 nM

CCOC(=O)NCCSC(C)(C)[C@H](NC(=O)[C@H](Cc1cc2ccccc2s1)[C@H](CC)N(O)C=O)C(=O)Nc1nccs1
XC50: 296 nM

CCC(C)(CC)C(=O)n1ncc2c3c(N)nc(N)nc3ccc21
XC50: 6 nM

COc1cc2c(cc1NC(=O)CN1CCN(C(=O)c3ccco3)CC1)oc1ccccc12
XC50: 422 nM

Cc1cc(Br)cnc1CCCCNc1cc(=O)c2ccccc2[nH]1
XC50: 1160 nM

COc1ccc2nccc([C@@H](O)CN3CCC(NC(=O)C(c4ccccc4C)N4CCC(Cc5ccccc5)CC4)CC3)c2c1 (some centres not stated)
XC50: 261 nM

CCOc1cc(Cl)c(C(C)NC(=O)c2ccccc2)cc1OCC (configuration not stated)
XC50: 875 nM

N#Cc1ccc(CN2CCCN(Cc3cccc(NC(=O)c4ccc(-c5ccccc5)cc4)c3)CC2)cc1
XC50: 1020 nM

Cc1cc(Cl)ccc1OC(C)C(=O)N1CCc2ccccc21 (configuration not stated)
XC50: 668 nM

CC1CCCN(C(=O)C(C)Nc2cc(Cl)ccc2N2CCOCC2)C1 (configuration not stated)
XC50: 316 nM

CCOc1ccc2c(=NN=Cc3cc(OC)c(OC)cc3OC)cc(C)[nH]c2c1
XC50: 997 nM

CC(C)c1ccc(NC(=O)c2cccc(CN3CCCN(Cc4cccc(O)c4)CC3)c2)cc1
XC50: 772 nM

Cc1ccccc1-c1cc(=O)c2cc(NC(=O)c3cccs3)ccc2o1
XC50: 218 nM

COc1ccccc1CCNc1nccc(N[C@@H](Cc2ccccc2)C(=O)NCc2cccs2)n1
XC50: 871 nM

CN(C)c1nc2cc(-n3cnc4cc(-c5ccc(Cl)cc5)sc4c3=O)ccc2n1CCCN1CCCC1
XC50: 848 nM

O=C(NC1CCN(Cc2ccccc2)CC1)c1ccc(-c2nc3cc(Cl)c(Cl)cc3[nH]2)c(F)c1
XC50: 736 nM

CC(Cc1ccc(OCc2ccccc2)cc1)NCC(O)c1cccc(Cl)c1 (configuration not stated)
XC50: 547 nM

O=C(Nc1cccc(CN2CCCN(Cc3ccc(F)cc3)CC2)c1)c1ccc(Cl)c(Cl)c1
XC50: 958 nM

CCOc1cc(C(=O)NC2CC(C)(C)N(C)C(C)(C)C2)ccc1-c1nc2cc(Cl)c(Cl)cc2[nH]1
XC50: 861 nM

N#Cc1cc(C(=O)Nc2ccccc2)c(N)nc1SCC(=O)Nc1ccc(Br)cc1
XC50: 1100 nM

CCOc1ccccc1C=CC(=O)Nc1ccc2nc(N3CCN(C)CC3)cc(C)c2c1
XC50: 273 nM

O=C(O)c1cccnc1Sc1ccc(Cl)cc1
XC50: 830 nM

C=CCn1c(=N)n(CC(O)c2ccc(Cl)c(Cl)c2)c2ccccc21 (configuration not stated)
XC50: 338 nM

CCc1cn2c3c(cc(C(=O)N[C@@H](Cc4ccccc4)[C@H](O)CNC(C)C)cc13)N(C)S(=O)(=O)C2
XC50: 317 nM

CN1CCN(c2cc(-c3cccnc3)nc(-c3ccncc3)n2)CC1
XC50: 554 nM

COc1ccc(-c2nnc(Sc3ccc(C#N)c([N+](=O)[O-])c3)n2CCC(C)C)cc1
XC50: 1110 nM

COc1cccc2cc(C(=O)N[C@@H](CC(C)C)C(=O)N[C@H](C=NNC(=O)OC(C)(C)C)Cc3ccccc3)oc12
XC50: 304 nM

Cc1cccc2nc(-c3cccc(-c4cccc(NC(=O)NCc5ccccc5)c4)c3)[nH]c12
XC50: 521 nM

CC(=O)N1Cc2ccccc2C1=O
XC50: 522 nM

Cc1cc(C)n2nc(C(=O)Nc3cc(C(F)(F)F)ccc3N3CCOCC3)nc2n1
XC50: 119 nM

CC(=O)Nc1cccc(-c2cn(-c3ccc(OCc4cccc(F)c4)c(Cl)c3)c3ncncc23)c1
XC50: 70.9 nM

CCNc1cc(C(=O)N[C@@H](Cc2ccccc2)[C@H](O)CNCCc2cccc(C(F)(F)F)c2)cc(N2CCCC2=O)c1
XC50: 879 nM

CC[C@H]1C[N+]2([O-])CC[C@@H]1C[C@H]2[C@H](O)c1cc(-c2ccccc2)nc2ccc(OC)cc12
XC50: 840 nM
